The term IC50 denotes the concentration at which inhibition is half-maximal. Read a low IC50 as greater potency in that assay.

Results on 2 compounds are retold here after ChEMBL document CHEMBL3593161, “Discovery of potent and selective nonplanar tankyrase inhibiting nicotinamide mimics” (Bioorg Med Chem, 2015).

Assay [1] deals with T1, Poly [ADP-ribose] polymerase tankyrase-1 (Homo sapiens, UniProt O95271).
T1 sequence (O95271 whole entry): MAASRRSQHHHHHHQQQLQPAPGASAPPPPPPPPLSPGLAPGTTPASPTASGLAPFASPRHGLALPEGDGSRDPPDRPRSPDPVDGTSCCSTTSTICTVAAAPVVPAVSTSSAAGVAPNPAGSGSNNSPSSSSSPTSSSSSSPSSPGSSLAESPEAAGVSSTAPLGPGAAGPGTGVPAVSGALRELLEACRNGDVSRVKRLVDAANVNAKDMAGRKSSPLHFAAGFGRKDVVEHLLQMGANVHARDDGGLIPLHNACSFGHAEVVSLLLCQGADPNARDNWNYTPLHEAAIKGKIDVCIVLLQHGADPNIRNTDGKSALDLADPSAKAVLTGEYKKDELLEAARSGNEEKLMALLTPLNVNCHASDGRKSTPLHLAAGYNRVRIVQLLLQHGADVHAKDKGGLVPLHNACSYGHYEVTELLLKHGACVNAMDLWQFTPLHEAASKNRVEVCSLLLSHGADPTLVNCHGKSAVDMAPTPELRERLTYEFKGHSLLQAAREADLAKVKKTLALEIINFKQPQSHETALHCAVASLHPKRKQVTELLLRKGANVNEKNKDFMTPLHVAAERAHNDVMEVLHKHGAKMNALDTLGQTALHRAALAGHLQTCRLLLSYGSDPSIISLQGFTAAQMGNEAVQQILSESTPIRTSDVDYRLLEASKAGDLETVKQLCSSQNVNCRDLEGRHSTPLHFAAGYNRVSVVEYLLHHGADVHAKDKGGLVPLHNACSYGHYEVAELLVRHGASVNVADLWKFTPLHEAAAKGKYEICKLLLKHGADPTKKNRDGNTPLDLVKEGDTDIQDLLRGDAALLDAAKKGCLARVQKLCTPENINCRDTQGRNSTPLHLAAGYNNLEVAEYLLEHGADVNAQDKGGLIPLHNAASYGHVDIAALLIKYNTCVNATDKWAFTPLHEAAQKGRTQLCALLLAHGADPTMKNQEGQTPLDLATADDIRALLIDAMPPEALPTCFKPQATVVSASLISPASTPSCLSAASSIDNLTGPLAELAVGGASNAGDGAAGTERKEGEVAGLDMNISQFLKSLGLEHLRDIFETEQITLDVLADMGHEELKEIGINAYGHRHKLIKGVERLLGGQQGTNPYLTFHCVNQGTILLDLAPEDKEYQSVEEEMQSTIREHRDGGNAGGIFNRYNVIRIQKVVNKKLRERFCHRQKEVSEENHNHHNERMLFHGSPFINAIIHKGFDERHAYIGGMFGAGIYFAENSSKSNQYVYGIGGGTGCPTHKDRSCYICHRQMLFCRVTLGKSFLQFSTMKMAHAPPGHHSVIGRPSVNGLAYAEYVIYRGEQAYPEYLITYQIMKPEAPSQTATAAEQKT
As to the kind of experiment: Inhibition of human TNKS1 (1030 to 1317) using NAD substrate after 20 mins incubation by fluorescence assay.

For assay [2], the target named is T2, Protein mono-ADP-ribosyltransferase PARP10 (Homo sapiens, UniProt Q53GL7).
T2 sequence (Q53GL7 whole entry): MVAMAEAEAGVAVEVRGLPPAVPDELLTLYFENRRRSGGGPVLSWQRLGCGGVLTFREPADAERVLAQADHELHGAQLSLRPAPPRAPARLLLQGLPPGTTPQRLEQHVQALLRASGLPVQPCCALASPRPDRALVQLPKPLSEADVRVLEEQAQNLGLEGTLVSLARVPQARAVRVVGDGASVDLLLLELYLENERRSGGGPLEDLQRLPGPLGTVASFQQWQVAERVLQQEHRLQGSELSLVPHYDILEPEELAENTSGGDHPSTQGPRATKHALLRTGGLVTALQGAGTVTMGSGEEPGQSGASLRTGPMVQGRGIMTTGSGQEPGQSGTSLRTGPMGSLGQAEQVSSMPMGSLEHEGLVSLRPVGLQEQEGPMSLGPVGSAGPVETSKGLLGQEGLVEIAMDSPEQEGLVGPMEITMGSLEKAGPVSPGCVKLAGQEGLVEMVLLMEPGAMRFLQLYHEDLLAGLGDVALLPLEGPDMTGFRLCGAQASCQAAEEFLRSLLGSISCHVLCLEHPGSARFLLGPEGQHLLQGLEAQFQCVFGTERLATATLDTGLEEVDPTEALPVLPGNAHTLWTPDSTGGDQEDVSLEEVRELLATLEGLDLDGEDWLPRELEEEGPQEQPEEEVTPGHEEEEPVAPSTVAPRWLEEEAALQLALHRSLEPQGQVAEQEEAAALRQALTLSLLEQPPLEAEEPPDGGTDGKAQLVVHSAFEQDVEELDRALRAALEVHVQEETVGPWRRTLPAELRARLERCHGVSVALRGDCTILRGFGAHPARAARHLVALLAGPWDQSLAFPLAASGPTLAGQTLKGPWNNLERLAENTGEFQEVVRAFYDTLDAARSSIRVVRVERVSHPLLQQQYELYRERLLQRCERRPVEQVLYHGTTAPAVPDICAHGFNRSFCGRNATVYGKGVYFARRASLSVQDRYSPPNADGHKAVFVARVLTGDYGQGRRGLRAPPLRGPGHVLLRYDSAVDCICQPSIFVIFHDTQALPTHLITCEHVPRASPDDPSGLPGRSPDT
In words: Inhibition of human ARTD10 (809 to 1017) using 500 nM NAD substrate at 10 uM after 2.5 hrs incubation.

With `CC(C)c1ccc(C2NC(=O)c3ccccc3N2)cc1` (centres undefined), the IC50 was 1100 nM in assay [1] and > 10000 nM in assay [2].

Consider `CC(C)(C)c1ccc(C2NC(=O)c3ccccc3N2)cc1` (centres undefined), for which the IC50 in assay [1] was 620 nM; in assay [2] it was > 10000 nM.
